In patent US20100267742A1, “COMBINATION TARGETED THERAPY FOR LUNG CANCER” (RUSH UNIVERSITY MEDICAL CENTER, priority 2009, published 2010):
“Also recorded” adds a separate entry of the source.

Tests used:
Assay type in all cases: cell-based, human
[1] = system: kinase and receptor phosphorylation in Calu3 cells; test: Western blot with anti-phospho antibodies on lysates of serum-starved cells; details: for Akt (ser473) phosphorylation / EGFR (Y1068) phosphorylation: low doses alone versus combination
Protocol: (§1) Lysates were prepared for immunoprecipitation and Western blotting from serum-starved Calu3 and H1975 cell lines after incubation with kinase inhibitors, including enzastaurin for PKCβ, and SU11274 for c-met. Specific site directed anti-phospho-antibodies were used to probe Western blots to determine the effect of respective inhibitors on downstream kinase activation. Proliferation and cell viability assays were performed with 10,000 cells seeded into 96-well plates and incubated with inhibitors in serum-starved cultures for 72 hours. Cell viability was determined by the addition of Calcein-AM (calcein-acetoxymethyl ester, diacetate) for the final 2 hours and plates were read at 515 nm. Antibodies: Anti-EGFR, antiphospho-EGFR (Tyr845), anti-phospho-EGFR (Tyr1068), anti-phospho-Akt (Ser473), anti phospho-Erk1,2 (Thr202/Tyr204), anti-phospho-PKCα,β) were purchased from Cell Signaling. Cell cultures: Cells were serum starved for 18-24 hours prior to incubation with kinase inhibitors. Enzastaurin was added for a minimum of 3.5 hours of culture and SU11274 for at least one hour before preparation of lysates. Cell lysates: Media were removed from confluent monolayers of cells immediately before addition of lysis buffer (1 μg/ml aprotinin, 1 μg/ml leupeptin, 200 μM sodium vanadate (NaVO4), 0.1% NP-40, […], 20 mM EDTA, 1 mM PMSF in 50 mM Tris-HCl (pH 7.5). Cells were harvested and sonicated in lysis buffer. After 15 minutes on ice, lysates were microcentrifuged for 20 minutes. Supernatants were removed and protein concentrations therein determined spectrophotometrically with protein detection reagent. Western blots: 10-30 μg of lysate were mixed with loading buffer and boiled before loading into 7.5% Tris-HCl pre-cast SDS-PAGE gels for electrophoresis in SDS-glycine buffer for 90 minutes. Separated proteins were transferred from the gel to Hybond ECL nitrocellulose membrane using a Trans-Blot SD semi-dry transfer cell apparatus. The transfer ran at 20 volts for 35-40 minutes. Nitrocellulose membranes were washed in 1×Tris Buffered Saline-0.1% Tween 20 (TBS-T) then blocked with 5% BSA or 5% milk in TBS-T on rotator for one hour at room temperature or overnight at 4° C. 0.2% Sodium Azide (NaN3) was added to all blocking and primary antibody solutions. Nitrocellulose membranes were probed with 1:1000 or 1:2000 primary antibody.

[2] = system: Calu3 cells; test: Cell proliferation / cell survival (viability) assay, Calcein-AM, 72 hours; details: for cell survival / cell viability / sensitivity: Calu3, 72 hours in culture, serum-starved; for effect on cell number (3-factor ANOVA): Calu3 cell line, no EGFR mutation, alone or in combination
Protocol: (§2) Lysates were prepared for immunoprecipitation and Western blotting from serum-starved Calu3 and H1975 cell lines after incubation with kinase inhibitors, including enzastaurin for PKCβ, and SU11274 for c-met. Specific site directed anti-phospho-antibodies were used to probe Western blots to determine the effect of respective inhibitors on downstream kinase activation. Proliferation and cell viability assays were performed with 10,000 cells seeded into 96-well plates and incubated with inhibitors in serum-starved cultures for 72 hours. Cell viability was determined by the addition of Calcein-AM (calcein-acetoxymethyl ester, diacetate) for the final 2 hours and plates were read at 515 nm. Lung carcinoma cell lines: H1975 and Calu-3 were cultured following ATCC guidelines. Cells are removed from flasks with cell dissociation buffer in PBS.

[3] = system: H1975 cells; test: as above; details: H1975 cell line, two EGFR mutations, alone or in combination
Protocol: as §2

[4] = system: kinase phosphorylation in H1975 cells; test: Western blot with anti-phospho antibodies on lysates of serum-starved cells
Protocol: as §1

Row | SMILES | Akt (ser473) phosphorylation ([1]; Calu3) | EGFR (Y1068) phosphorylation ([1]; Calu3) | cell survival / cell viability / sensitivity [2] | effect on cell number (3-factor ANOVA) ([2]; listed as SU) | effect on cell number (3-factor ANOVA) ([3]; listed as SU) | sic phosphorylation ([4]; H1975) | PKCαβ phosphorylation ([4]; H1975, short-term incubation, serum-free medium) | c-met phosphorylation ([1]; Calu3) | erbB3 phosphorylation ([1]; Calu3) | phosphorylation of PKC family members (pan-antibody against common phosphorylation sites) ([1]; Calu3) | sic phosphorylation ([1]; Calu3) | PKCαβ phosphorylation ([1]; Calu3, 3.5 hours in culture, serum-free medium) | effect on cell number (3-factor ANOVA) ([2]; listed as Enzo 150) | effect on cell number (3-factor ANOVA) ([3]; listed as Enza150) | effect on cell number (3-factor ANOVA) ([3]; listed as Enzo150)
1 | Cc1[nH]c(/C=C2\C(=O)Nc3ccc(S(=O)(=O)N(C)c4cccc(Cl)c4)cc32)c(C)c1C(=O)N1CCN(C)CC1 [SU11274] | only minimal effects | only minimal effects | significantly decreases the numbers of NSCLC cells | significant effect | neither SU nor Enzo150 alone has a significant effect; also recorded: not significantly effective | – | – | – | – | – | – | – | – | – | –
2 | Cn1cc(C2=C(c3cn(C4CCN(Cc5ccccn5)CC4)c4ccccc34)C(=O)NC2=O)c2ccccc21 [enzastaurin] | only minimal effects | only minimal effects | greatest sensitivity; also recorded: significantly decreases the numbers of NSCLC cells | – | – | only a moderate effect | inhibited | decreased | decreased | does not inhibit phosphorylation of all PKC family members | substantially decreased | dose dependent inhibition; also recorded: inhibited | significant effect | not significantly effective | neither SU nor Enzo150 alone has a significant effect
